Test results from patent US7678941B2, “Polyoxyalkylene ammonium salts and their use as antistatic agents” (3M Innovative Properties Company, priority 2001, dated 2010).

Key:
[1] = Surface tension determination (Kruss K12 Tensiometer, Wilhelmy plate); assay type: physicochemical
Protocol: Test Method III—Surface Tension Determination
All surface tensions were determined using a Kruss K12 Tensiometer. It was integrated with an automatic dosimat and a computer, using a software package for dynamic contact angle (K121). The program was run using a Wilhelmy platinum plate (PL12) and glass sample vessel (GL7). All parts referenced above including instrument and computer can be purchased directly from Kruss USA, Charlotte, N.C.

[2] = Bioelimination study, amount of fluorochemical sulfonate in male rat liver tissue; assay type: in vivo; settings: for Amount of Sulfonate, Day 1N / Amount of Sulfonate, Day 1 / Amount of Sulfonate, Day 14N / Amount of Sulfonate, Day 14 / Amount of Sulfonate, Day 28N / Amount of Sulfonate, Day 28: male rat liver; for Amount of Sulfonate, Day 1N / Amount of Sulfonate, Day 14N / Amount of Sulfonate, Day 28N: normalized to a feeding level of 3 mg/kg body weight per day; for Amount of Sulfonate, Day 1 / Amount of Sulfonate, Day 14 / Amount of Sulfonate, Day 28: potassium salts dosed at 30 (C4), 10 (C6), 3 (C8) mg/kg body weight/day; for elimination from the body: tested in the form of its potassium salt
Protocol: Bioelimination Study with Perfluorobutanesulfonate
Comparative study of potassium perfluorobutanesulfonate (using a dose level of 30 mg/kg body weight/day), potassium perfluorohexanesulfonate (using a dose level of 10 mg/kg body weight/day), and potassium perfluorooctanesulfonate (using a dose level of 3 mg/kg body weight/day).

[3] = Surface Resistivity Test (ASTM D-257) of topically coated polyester film; settings: 72° F., 27% relative humidity; for Surface Resistivity 1% MEK solution: 1% solution in MEK coated on polyester film; for Surface Resistivity 6% MEK: 6% solution in MEK coated on polyester film
Protocol: Test Method IV—Surface Resistivity Test
The Surface Resistivity Test was conducted according to the procedure of ASTM Standard D-257; “D.C. Resistance or Conductance of Insulating Materials”. The surface resistivity was measured under these conditions using an ETS Model 872 Wide Range Resistance Meter fitted with a Model 803B probe (Electro-Tech Systems, Inc., Glenside, Pa.). This apparatus applies an external voltage of 10 Volts across two concentric ring electrodes and provides surface resistivity readings in ohm/cm^2. The room temperature was 72° F. and there was a 27% relative humidity.
Topically Coated Polyester Film.
A 1% and 6% solution of the antistatic agent to be tested in methylethyl ketone (MEK) was prepared. About 2 mL of solution was pipetted onto the top of a sheet of polyester film with 25.5 cm by 17.8 cm dimensions. The solution was then drawn over the film using a #12 wire wound bar. The resulting coating was dried in a forced air oven for 2.5 minutes at 65° C.

[4] = Thermal gravimetric analysis (TGA); assay type: physicochemical; settings: for Wt. % remaining @ given Temp: nitrogen, 10° C. per minute ramp; for weight loss compared with chloride salt of the same cation: processing range of 200-320° C.
Protocol: Test Methods Test Method I—Thermal Gravimetric Analysis (TGA)
The thermal decomposition of each salt was determined by thermal gravimetric analysis (TGA) under an inert nitrogen atmosphere using a 10° C. per minute temperature ramp using a PerkinElmer Thermogravimetric Analyzer TGA 7, manufactured by PerkinElmer Instruments of Norwalk, Conn.
Table 3 provides thermal gravimetric data for antistats of the present invention and comparative antistats.

[5] = at 28 days following completion of feeding, after normalization to the same feeding levels
[6] = liver amount at 28 days following completion of feeding
[7] = liver amount immediately following completion of feeding

With `O=S(=O)([O-])C(F)(F)C(F)(F)C(F)(F)C(F)(F)F.[K+]` [Antistat C4F9SO3K, Potassium perfluorobutane sulfonate] the surface energy ([1]; 10 ppm in water) was 70 dyne/cm, the surface energy ([1]; 100 ppm in water) was 67.5 dyne/cm and the surface energy ([1]; 1000 ppm in water) was 53 dyne/cm. For the same compound, the “factor lower than C6F13SO3^−” value [2, 5] was 4400, the “factor lower than C6F13SO3^−” value [2, 6] was > 1400 and the “factor lower than C6F13SO3^−” value [2, 7] was > 100. The “Amount of Sulfonate, Day 1N” value [2] was 0.31 ppm, the “Amount of Sulfonate, Day 1” value [2] was 3.09 ± 1.58 ppm and the “Amount of Sulfonate, Day 14N” value [2] was 0.0126 ppm. The “Amount of Sulfonate, Day 14” value [2] was 0.126 ± 0.084 ppm, the “Amount of Sulfonate, Day 28N” value [2] was 0.0025 ppm and the “Amount of Sulfonate, Day 28” value [2] was 0.025 ± 0.015 ppm. For the same compound, the “elimination from the body” value ([2]; listed as C4F9SO3^−) was “unexpectedly fast and effective elimination” and the “elimination from the body” value ([2]; listed as perfluorobutanesulfonate) was “eliminates from the body more rapidly than perfluorohexanesulfonate and much more rapidly than perfluorooctanesulfonate”.

Work on `O=S(=O)([O-])C(F)(F)C(F)(F)C(F)(F)C(F)(F)C(F)(F)C(F)(F)C(F)(F)C(F)(F)F.[K+]` [Antistat C8F17SO3K, Potassium perfluorooctanesulfonate] yielded a surface energy ([1]; 10 ppm in water) of 67.68 dyne/cm, a surface energy ([1]; 100 ppm in water) of 54.09 dyne/cm and a surface energy ([1]; 1000 ppm in water) of 33.17 dyne/cm. For the same compound, the “Amount of Sulfonate, Day 1N” value [2] was 419 ppm, the “Amount of Sulfonate, Day 1” value [2] was 419 ± 86 ppm and the “Amount of Sulfonate, Day 14N” value [2] was 309 ppm. The “Amount of Sulfonate, Day 14” value [2] was 309 + 34 ppm, the “Amount of Sulfonate, Day 28N” value [2] was 237 ppm and the “Amount of Sulfonate, Day 28” value [2] was 237 ± 25 ppm.

`O=S(=O)([N-]S(=O)(=O)C(F)(F)C(F)(F)C(F)(F)C(F)(F)F)C(F)(F)C(F)(F)C(F)(F)C(F)(F)F.[K+]` [C4F9SO2NKSO2C4F9, potassium bis(perfluorobutanesulfonyl)imide] showed a surface energy ([1]; 10 ppm in water) of 61.85 dyne/cm, a surface energy ([1]; 100 ppm in water) of 41.61 dyne/cm and a surface energy ([1]; 1000 ppm in water) of 34.02 dyne/cm.

With `O=S(=O)([O-])C(F)(F)C(F)(F)C(F)(F)C(F)(F)C(F)(F)C(F)(F)F.[K+]` [C6F13SO3^−, potassium perfluorohexanesulfonate] the “factor lower than C8F17SO3^−” value [2, 5] was 21.5, the “factor lower than C8F17SO3^−” value [2, 6] was 6.5 and the “factor lower than C8F17SO3^−” value [2, 7] was 1.3. The “Amount of Sulfonate, Day 1N” value [2] was 98 ppm, the “Amount of Sulfonate, Day 1” value [2] was 327 ± 52 ppm and the “Amount of Sulfonate, Day 14N” value [2] was 19 ppm. For the same compound, the “Amount of Sulfonate, Day 14” value [2] was 61.9 ± 11.7 ppm, the “Amount of Sulfonate, Day 28N” value [2] was 11 ppm and the “Amount of Sulfonate, Day 28” value [2] was 36.3 ± 7.4 ppm.

In the case of “CH3CH2C[CH2(OCH2CH(CH3))xNH3^+][CH2(OCH2CH(CH3))yNH3^+][CH2(OCH2CH(CH3))zNH3^+][—N(SO2C4F9)2]3 where x+y+z˜5.3; JEFFAMINE™ T-403 DBI salt [Antistat 2]”, the “Surface Resistivity 1% MEK solution” value [3] is reported as 2.4 × 10^10 Ohm/cm^2 and the “Surface Resistivity 6% MEK” value [3] is reported as 1.5 × 10^11 Ohm/cm^2.

With “CH3CH2C[CH2(OCH2CH(CH3))xNH3^+][CH2(OCH2CH(CH3))yNH^3^+][CH2(OCH2CH(CH3))zNH3^+][^−N(SO2CF3)2]3 where x+y+z˜5.3; JEFFAMINE™ T-403 DMI salt [Antistat 3]” the “Surface Resistivity 1% MEK solution” value [3] was 1.7 × 10^9 Ohm/cm^2 and the “Surface Resistivity 6% MEK” value [3] was 1.1 × 10^9 Ohm/cm^2.

In the case of “[(+)H3NCH(CH3)CH2[OCH(CH3)CH2]a[OCH2CH2]8.5[OCH2CH(CH3)]CNH3(+)][C8F17SO3^−]2 (a+c=2.5) [Comparative Antistat 1]”, the “Surface Resistivity 1% MEK solution” value [3] is reported as 1.6 × 10^11 Ohm/cm^2 and the “Surface Resistivity 6% MEK” value [3] is reported as 1.5 × 10^11 Ohm/cm^2.

For “[(+)H3NCH(CH3)CH2[OCH(CH3)CH2]a[OCH2CH2]8.5[OCH2CH(CH3)]CNH3(+)][—N(SO2CF3)2]2 (a+c=2.5); JEFFAMINE™ XJT-500 [^—N(SO2CF3)2]salt [Antistat 7]”, the “Surface Resistivity 1% MEK solution” value [3] was 1.2 × 10^9 Ohm/cm^2 and the “Surface Resistivity 6% MEK” value [3] was 3.7 × 10^8 Ohm/cm^2.

In the case of “[(+)H3NCH(CH3)CH2[OCH(CH3)CH2]a[OCH2CH2]8.5[OCH2CH(CH3)]cNH3(+)][—N(SO2C4F9)2]2 (a+c=2.5); JEFFAMINE™ XJT-500 DBI salt [Antistat 1]”, the “Surface Resistivity 1% MEK solution” value [3] is reported as 8.5 × 10^9 Ohm/cm^2 and the “Surface Resistivity 6% MEK” value [3] is reported as 3.1 × 10^9 Ohm/cm^2.

With “[C12H25N^+(CH3)(CH2CH2O)mH(CH2CH2O)nH][^−N(SO2CF3)2]; (m+n=15) [Antistat 4]” the “Wt. % remaining @ given Temp” value ([4]; 200° C.) was 99.7 Wt. %, the “Wt. % remaining @ given Temp” value ([4]; 240° C.) was 99.5 Wt. % and the “Wt. % remaining @ given Temp” value ([4]; 280° C.) was 99.3 Wt. %. For the same compound, the “Wt. % remaining @ given Temp” value ([4]; 320° C.) was 98.6 Wt. % and the “weight loss compared with chloride salt of the same cation” value [4] was “less weight loss than ETHOQUAD™ C/25”.

For “[C12H25N^+(CH3)(CH2CH2O)mH(CH2CH2O)nH^−Cl] (m + n = 15) [ETHOQUAD ™ C/25]”, the “Wt. % remaining @ given Temp” value ([4]; 200° C.) was 97.2 Wt. %, the “Wt. % remaining @ given Temp” value ([4]; 240° C.) was 89.4 Wt. % and the “Wt. % remaining @ given Temp” value ([4]; 280° C.) was 85.9 Wt. %. For the same compound, the “Wt. % remaining @ given Temp” value ([4]; 320° C.) was 81.8 Wt. %.

In the case of “[C18H37N^+(CH3)(CH2CH2O)mH(CH2CH2O)nH][^−N(SO2CF3)2]; (m+n=15) [Antistat 5]”, the “Wt. % remaining @ given Temp” value ([4]; 200° C.) is reported as 99.6 Wt. %, the “Wt. % remaining @ given Temp” value ([4]; 240° C.) is reported as 99.2 Wt. % and the “Wt. % remaining @ given Temp” value ([4]; 280° C.) is reported as 98.9 Wt. %. For the same compound, the “Wt. % remaining @ given Temp” value ([4]; 320° C.) was 98.0 Wt. % and the “weight loss compared with chloride salt of the same cation” value [4] was “less weight loss than ETHOQUAD™ 18/25”.

With “[C18H37N^+(CH3)(CH2CH2O)mH(CH2CH2O)nH^−Cl] (m + n = 15) [ETHOQUAD ™ 18/25]” the “Wt. % remaining @ given Temp” value ([4]; 200° C.) was 97.6 Wt. %, the “Wt. % remaining @ given Temp” value ([4]; 240° C.) was 90.8 Wt. % and the “Wt. % remaining @ given Temp” value ([4]; 280° C.) was 85.5 Wt. %. For the same compound, the “Wt. % remaining @ given Temp” value ([4]; 320° C.) was 82.0 Wt. %.

With “[CH3(OCH2CH2)19(OCH2CHCH3)2NH3^+][^−N(SO2CF3)2] [Antistat 6]” the “Surface Resistivity 1% MEK solution” value [3] was 1.6 × 10^9 Ohm/cm^2 and the “Surface Resistivity 6% MEK” value [3] was 7.8 × 10^9 Ohm/cm^2.

With “[CH3(OCH2CH2)19(OCH2CHCH3)2NH3^+][^−O3SCF3] [Comparative Antistat 2]” the “Surface Resistivity 1% MEK solution” value [3] was 1.5 × 10^12 Ohm/cm^2 and the “Surface Resistivity 6% MEK” value [3] was 1.6 × 10^12 Ohm/cm^2.
